Results: paper PMC4519791, “Functional diversity and properties of multiple xylanases from Penicillium oxalicum GZ-2” (Scientific Reports, 2015)

How the values were obtained:
Format in all cases: biochemical
xyn10B = molecular target: T1, xyn10B (Penicillium oxalicum, UniProt U3MZ77); assay: p-nitrophenyl substrate hydrolysis (specific activity); conditions: 10 mM substrate; optimal temperature, pH 5.0
T1 construct: mature enzyme, GH10 catalytic domain, Ser/Thr linker and CBM1; pPICZalphaA alpha-factor secretion, 6xHis tag, Pichia pastoris, Ni-NTA
T1 sequence (U3MZ77 23-410): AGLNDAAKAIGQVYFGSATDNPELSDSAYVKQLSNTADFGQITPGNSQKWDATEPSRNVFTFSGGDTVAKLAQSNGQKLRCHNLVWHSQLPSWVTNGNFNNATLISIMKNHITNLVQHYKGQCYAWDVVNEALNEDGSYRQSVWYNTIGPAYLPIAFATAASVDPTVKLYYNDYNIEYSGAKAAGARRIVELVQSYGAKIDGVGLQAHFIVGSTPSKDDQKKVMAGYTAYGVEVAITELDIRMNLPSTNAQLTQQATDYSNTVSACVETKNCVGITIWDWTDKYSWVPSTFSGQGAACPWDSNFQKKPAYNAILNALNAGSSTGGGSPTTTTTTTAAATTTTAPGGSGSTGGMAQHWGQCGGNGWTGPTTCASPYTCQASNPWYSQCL

xyn10A = molecular target: T2, xyn10A (Penicillium oxalicum, UniProt U3N115); assay: TLC of hydrolysis products; conditions: 1 mg/ml substrate, 12 h; 50 mM acetate pH 4.0, 40 °C (Figure 7 legend) or optimal pH, 45 °C (Methods)
T2 construct: mature enzyme, GH10 catalytic domain without CBM; pPICZalphaA alpha-factor secretion, 6xHis tag, Pichia pastoris, Ni-NTA

xyn11A = molecular target: T3, xyn11A (Penicillium oxalicum, UniProt U3MZH8); assay: TLC of hydrolysis products; conditions: 1 mg/ml substrate, 12 h; 50 mM acetate pH 4.0, 40 °C (Figure 7 legend) or optimal pH, 45 °C (Methods)
T3 construct: GH11 catalytic domain without CBM; 23 kDa by SDS-PAGE; pPICZalphaA alpha-factor secretion, 6xHis tag, Pichia pastoris, Ni-NTA

xyn11B = molecular target: T4, xyn11B (Penicillium oxalicum, UniProt E7EF85); assay: TLC of hydrolysis products; conditions: 1 mg/ml substrate, 12 h; 50 mM acetate pH 4.0, 40 °C (Figure 7 legend) or optimal pH, 45 °C (Methods)
T4 construct: gene xynB; mature enzyme, GH11 catalytic domain, Ser/Thr linker and CBM1; pPICZalphaA alpha-factor secretion, 6xHis tag, Pichia pastoris, Ni-NTA
T4 sequence (E7EF85 20-310): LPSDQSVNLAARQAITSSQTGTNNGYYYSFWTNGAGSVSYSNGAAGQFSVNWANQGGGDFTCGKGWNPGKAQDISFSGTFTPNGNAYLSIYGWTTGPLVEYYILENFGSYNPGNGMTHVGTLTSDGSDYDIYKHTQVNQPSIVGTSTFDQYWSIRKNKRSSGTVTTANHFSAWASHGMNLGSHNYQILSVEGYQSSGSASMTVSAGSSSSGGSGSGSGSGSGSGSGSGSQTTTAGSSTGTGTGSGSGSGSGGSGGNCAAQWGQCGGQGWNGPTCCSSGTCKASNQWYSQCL

T2 sequence (U3N115 20-330): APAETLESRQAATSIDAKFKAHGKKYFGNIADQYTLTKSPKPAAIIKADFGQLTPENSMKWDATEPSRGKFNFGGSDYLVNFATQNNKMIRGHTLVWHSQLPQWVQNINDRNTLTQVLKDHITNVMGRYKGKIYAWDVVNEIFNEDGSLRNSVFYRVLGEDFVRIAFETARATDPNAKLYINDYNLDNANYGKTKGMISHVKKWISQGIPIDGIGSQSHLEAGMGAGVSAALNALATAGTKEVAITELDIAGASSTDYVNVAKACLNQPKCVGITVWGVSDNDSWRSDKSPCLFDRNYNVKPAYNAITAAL
T3 sequence (U3MZH8 17-211): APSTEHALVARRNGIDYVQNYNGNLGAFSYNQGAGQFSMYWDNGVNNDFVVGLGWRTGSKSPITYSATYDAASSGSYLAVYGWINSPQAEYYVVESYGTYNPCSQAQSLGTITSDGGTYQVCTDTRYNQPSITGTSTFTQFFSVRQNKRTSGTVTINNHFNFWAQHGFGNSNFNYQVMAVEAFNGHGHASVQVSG

Structure (SMILES)	p-nitrophenyl substrate hydrolysis (specific activity) (xyn10B)	TLC of hydrolysis products (xyn10A)	TLC of hydrolysis products (xyn11A)	TLC of hydrolysis products (xyn11B)
O=[N+]([O-])c1ccc(O[C@@H]2O[C@H](CO)[C@@H](O[C@@H]3O[C@H](CO)[C@@H](O)[C@H](O)[C@H]3O)[C@H](O)[C@H]2O)cc1 [pNPC, p-nitrophenyl β-D-cellobioside]	Although xyn10B degraded pNPX and pNPC, the other three enzymes were not active	–	–	–
OC1OC[C@@H](O[C@@H]2OC[C@@H](O[C@@H]3OC[C@@H](O)[C@H](O)[C@H]3O)[C@H](O)[C@H]2O)[C@H](O)[C@H]1O (some centres unmarked) [X3, xylotriose]	–	the two GH10 enzymes rapidly degraded X3, X4, X5 and X6	–	–
O=[N+]([O-])c1ccc(O[C@@H]2OC[C@@H](O)[C@H](O)[C@H]2O)cc1 [pNPX, p-nitrophenyl-β-D-xylopyranoside]	Although xyn10B degraded pNPX and pNPC, the other three enzymes were not active	–	–	–
OC1OC[C@@H](O[C@@H]2OC[C@@H](O[C@@H]3OC[C@@H](O[C@@H]4OC[C@@H](O)[C@H](O)[C@H]4O)[C@H](O)[C@H]3O)[C@H](O)[C@H]2O)[C@H](O)[C@H]1O (some centres unmarked) [X4, xylotetraose]	–	–	X4, X5 and X6 were hydrolyzed to X2 and X3 through xyn11A	hydrolytic products obtained with GH11 xylanase (xyn11B) was similar to that of xyn11A
OC1CO[C@@H](OC2CO[C@@H](OC3CO[C@@H](OC4CO[C@@H](OC5CO[C@@H](OC6COC(O)C(O)C6O)C(O)C5O)C(O)C4O)C(O)C3O)C(O)C2O)C(O)C1O (some centres unmarked) [X6, xylohexaose]	–	the two GH10 enzymes rapidly degraded X3, X4, X5 and X6	X4, X5 and X6 were hydrolyzed to X2 and X3 through xyn11A	hydrolytic products obtained with GH11 xylanase (xyn11B) was similar to that of xyn11A
